Measured values published in ChEMBL document CHEMBL4118089, “Pyrazine Analogs for the Treatment of Protozoal Infections” (ACS Med Chem Lett, 2017).

Experiments:
Plasmodium falciparum [1] = assay: Antiplasmodial activity against Plasmodium falciparum; type: functional, organism-based
Plasmodium falciparum [2] = assay: Antiplasmodial activity against Plasmodium falciparum infected in mouse; type: functional

| Structure (SMILES) | IC50 (Plasmodium falciparum [1]) [µM] | ED90 (Plasmodium falciparum [2]) [mg/kg] |
| --- | --- | --- |
| Cc1cncc(-c2cncc(-c3ccc(C(=O)N4CCNCC4)cc3)n2)c1 | 0.035 | 2.2 |
| O=C(c1ccc(-c2cncc(-c3cncc(F)c3)n2)cc1)N1CCNCC1 | 0.025 | 1.5 |
